These results are taken from patent US20240252456A1, “ORAL COMPOSITION, SKIN COSMETIC AND HAIR COSMETIC” (MARUZEN PHARMACEUTICALS CO., LTD., priority 2021, published 2024).

For one test, the system named is B16 melanoma cells. Kind of test: Melanin production suppressive action test on B16 melanoma cells. The test is classed as cell-based. To be noted: 4 days, corrected by cell survival rate. As to the method: B16 melanoma cells were cultured using Dulbecco's modified Eagle's medium (DMEM) containing 10% FBS, and then the cells were collected by a trypsin treatment. The collected cells were diluted with DMEM containing 10% FBS and 1 mmol/L theophylline to a cell density of 24.0×10^4 cells/mL, then seeded with 300 μL per well in a 48-well plate, and cultured for 6 hours.
After the culturing was completed, 300 μL of each of test samples (Samples 1 to 3, see Table 5 below for final concentrations) dissolved in DMEM containing 10% FBS and 1 mmol/L theophylline was added to each well, and culturing was performed for 4 days. As a control, culturing was performed in the same manner using DMEM containing 10% FBS and 1 mmol/L theophylline to which no sample was added. After the culturing was completed, the medium was removed, 200 μL of 2 mol/L NaOH solution was added, the cells were disrupted using an ultrasonic disrupter, and the absorbance at a wavelength of 475 nm was measured. From the measured absorbance value, the amount of melanin was calculated based on a calibration curve created using synthetic melanin (available from SIGMA).
In addition, in order to measure the cell survival rate, after culturing in the same manner as above, the medium was removed, the cells were washed with 400 μL of PBS(−) buffer solution, 200 μL of Neutral Red dissolved at a final concentration of 0.05 mg/mL in DMEM containing 10% FBS was added to each well, and culturing was performed for 2.5 hours. After culturing, the neutral red solution was removed, and 200 μL of ethanol/acetic acid solution (ethanol:acetic acid:water=50:1:49) was added to each well to extract the dye. After extraction, the absorbance at a wavelength of 540 nm was measured. From the obtained results, the melanin production suppression rate (%) corrected by the cell survival rate was calculated using the following equation.
Terms in the equation represent the following respective ones. • A: Melanin amount without sample addition • B: Melanin amount with test sample addition • C: Absorbance at wavelength 540 nm without sample addition • D: Absorbance at wavelength 540 nm with test sample addition

Test [1] has as its target T1, hyaluronidase (Type IV-S) (Bos taurus, UniProt Q2YDK3).
T1 construct: purchased SIGMA Type IV-S; host or cells: bovine testes
T1 sequence (Q2YDK3 36-553): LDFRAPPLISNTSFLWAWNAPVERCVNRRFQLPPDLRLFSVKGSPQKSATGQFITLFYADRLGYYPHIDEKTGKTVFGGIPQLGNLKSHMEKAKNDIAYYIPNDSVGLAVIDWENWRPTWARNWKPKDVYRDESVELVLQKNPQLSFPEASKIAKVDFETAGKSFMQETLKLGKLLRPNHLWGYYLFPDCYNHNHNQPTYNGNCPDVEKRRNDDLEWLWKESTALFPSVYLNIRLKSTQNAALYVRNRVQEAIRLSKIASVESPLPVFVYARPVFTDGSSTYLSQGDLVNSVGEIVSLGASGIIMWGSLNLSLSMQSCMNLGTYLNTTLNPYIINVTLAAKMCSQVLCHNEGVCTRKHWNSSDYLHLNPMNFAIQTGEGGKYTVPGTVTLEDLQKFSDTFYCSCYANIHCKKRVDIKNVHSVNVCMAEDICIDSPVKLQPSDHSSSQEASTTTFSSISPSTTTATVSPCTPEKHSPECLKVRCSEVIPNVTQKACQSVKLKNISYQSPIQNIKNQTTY
Kind of test: Hyaluronidase activity inhibitory action test. In kind it is biochemical, bovine. To be noted: read-out: Hyaluronidase activity inhibition rate; for inhibition at 250 µM: 250 μmol/L; for inhibition at 1000 µM: 1000 μmol/L. The protocol: To 0.2 mL of each of test samples (Samples 1 to 3, see Table 27 below for final concentrations) dissolved in 0.1 mol/L acetate buffer solution (pH 3.5), 0.1 mL of hyaluronidase solution (available from SIGMA, Type IV-S, from bovine tests, 400 NF units/mL) was added, and the mixture was statically placed at 37° C. for 20 minutes. Furthermore, 0.2 mL of 2.5 mmol/L calcium chloride was added as an activator, and the mixture was statically placed at 37° C. for 20 minutes. To this was added 0.5 mL of 0.8 mg/mL sodium hyaluronate solution (from rooster comb), and the mixture was reacted at 37° C. for 40 minutes. After that, 0.2 mL of 0.4 mol/L sodium hydroxide was added to stop the reaction, it was cooled, and then 0.2 mL of boric acid solution was added to each reaction solution, which was boiled for 3 minutes. After cooling on ice, 6 mL of p-DABA reagent was added and reacted at 37° C. for 20 minutes. After that, the absorbance at a wavelength of 585 nm was measured.
In addition, as a blank, the same operation and absorbance measurement were performed in the case in which no enzyme solution was added. Furthermore, as a control, the same measurement was performed in the case in which distilled water was added without adding the sample solution. From the obtained results, the hyaluronidase activity inhibition rate (%) was calculated using the following equation.
Terms in the equation represent the following respective ones. • A: Absorbance at wavelength 585 nm with test sample addition and with enzyme addition • B: Absorbance at wavelength 585 nm with test sample addition and without enzyme addition • C: Absorbance at wavelength 585 nm without sample addition and with enzyme addition • D: Absorbance at wavelength 585 nm without sample addition and without enzyme addition

Regarding `O=C(O)CCc1ccc(O)c(O)c1` [Sample 1, 3,4-Dihydroxyhydrocinnamic acid], the “Melanin production suppression rate” value in the test with B16 melanoma cells (250 μmol/L) was determined as 63.8%. In test [1], the inhibition at 250 µM was 4.9% and the inhibition at 1000 µM is 19.9%.

As for `O=C(O)CCc1ccc(O)cc1` [Sample 2, 3-(4-Hydroxyphenyl)propionic acid], the “Melanin production suppression rate” value in the test on B16 melanoma cells (62.5 μmol/L) turned out to be 8.5%; with B16 melanoma cells (250 μmol/L), 40.2%; with B16 melanoma cells (1000 μmol/L), 69.5%. Further, the inhibition at 1000 µM in test [1] was 15.8%.

In the case of `O=C(O)CCc1ccccc1` [Sample 3, 3-phenylpropionic acid], the “Melanin production suppression rate” value is listed as 46.2% in the test on B16 melanoma cells (250 μmol/L) and 57.0% in the test with B16 melanoma cells (1000 μmol/L). Further, the inhibition at 62.5 µM in test [1] (62.5 μmol/L) is 16.5%. Also, the inhibition at 250 µM in test [1] was 20.2%. Also, in test [1], the inhibition at 1000 µM turned out to be 41.1%.

What is called inhibition is the relative decrease from the control value, in per cent.
